Consider one cell line from the supplement of paper PMC10307832.

What all share (assay): relative viability (nuclei count vs DMSO), 5 days (fraction); higher = more cells survive
Compound in experiment [1]: CC(C)=CC[C@@H](O)C1=CC(=O)c2c(O)ccc(O)c2C1=O [Shikonin] + O=C(c1cc(Cc2n[nH]c(=O)c3ccccc23)ccc1F)N1CCN(C(=O)C2CC2)CC1 [Olaparib] (partner 8 µM)
In a few lines: (§1)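 Lung cancer cell lines in 1536-well plates got either a single drug or a fixed anchor-drug dose together with five library-drug doses (not always all listed) in √10 steps, by pin tool, on the day after seeding. Nuclei were counted after 5 days, and relative viability is the treated-to-vehicle ratio of nuclei counts. Values are medians of duplicate plates.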

Compound in experiment [2]: CC(C)N(CCCNC(=O)Nc1ccc(C(C)(C)C)cc1)C[C@H]1O[C@@H](n2ccc3c(N)ncnc32)[C@H](O)[C@@H]1O + C[C@]1(O)C[C@@H](c2nc(-c3ccc4ccc(-c5ccccc5)nc4c3)c3c(N)nccn32)C1 [Linsitinib] (partner 1 µM)
In a few lines:
as §1

Compound in experiment [3]: CC(C)N(CCCNC(=O)Nc1ccc(C(C)(C)C)cc1)C[C@H]1O[C@@H](n2ccc3c(N)ncnc32)[C@H](O)[C@@H]1O + Nc1ncn([C@H]2C[C@H](O)[C@@H](CO)O2)c(=O)n1 [Decitabine] (partner 2 µM)
The essentials:
as §1

Compound in experiment [4]: CC(C)=CC[C@@H](O)C1=CC(=O)c2c(O)ccc(O)c2C1=O [Shikonin] + CCNC(=O)c1noc(-c2cc(C(C)C)c(O)cc2O)c1-c1ccc(CN2CCOCC2)cc1 [Luminespib] (partner 0.01 µM)
The essentials:
as §1

As for SW 1573, the relative viability in experiment [1] (first compound 0.01 µM) is 0.661; in experiment [1] (first compound 0.1 µM), 0.557; in experiment [1] (first compound 0.3162 µM) it was 0.321; in experiment [1] (first compound 1 µM) it was 0.0736; in experiment [2] (first compound 0.08 µM), 0.603; in experiment [2] (first compound 0.253 µM), 0.872. The relative viability in experiment [2] (first compound 0.8 µM) came to 0.848; in experiment [2] (first compound 2.53 µM), 0.976; in experiment [2] (first compound 8 µM) it was 0.825; in experiment [3] (first compound 0.08 µM) it was 0.464; in experiment [3] (first compound 0.8 µM) it was 0.636; in experiment [3] (first compound 2.53 µM), 0.512. The relative viability in experiment [3] (first compound 8 µM) was determined as 0.543; in experiment [4] (first compound 0.01 µM) it was 0.494; in experiment [4] (first compound 0.1 µM), 0.201; in experiment [4] (first compound 0.3162 µM), 0.232; in experiment [4] (first compound 1 µM), 0.0929.
